Among the data in US12516062B2, “Agricultural or horticultural insecticide or animal ectoparasite or endoparasite control agent each comprising an imidazopyridazine compound having a substituted cyclopropane-oxadiazole group or a salt thereof as active ingredient, and method for using the insecticide or the control agent” (NIHON NOHYAKU CO., LTD., priority 2019, dated 2026) are mortality and inhibition values, retold here.

Bounds are passed on as bounds.

Common to all, as to format: in vivo
The test system of test [1] is Laodelphax striatellus. The test can be described thus: whole plant or invertebrate. The following applies: 192 h, rice seedlings dipped 30 seconds, 3rd-instar larvae, 8 days after inoculation, read-out: insecticidal efficacy (corrected mortality rate), activity level.
Test [2] concerns Dirofilaria immitis. The test can be described thus: Larval motility assay on Dirofilaria immitis. The following applies: 72 h, read-out: percent motility inhibition. On the procedure:
Larval Motility Assay on Dirofilaria immitis
Five hundred L1 stage larvae of D. immitis were diluted in a predetermined conditioned medium and introduced into each well of a 96-well plate. DMSO diluted solutions of various compounds of the present invention were added at the final concentration of 50 ppm to the wells of the 96-well plate. The plate was allowed to stand for 3 days, and then larval motility was examined. The percent motility inhibition in the wells of each treatment was calculated relative to the wells of treatment with DMSO only.

Test [3] concerns Plutella xylostella. The test is described as follows: whole plant or invertebrate. Conditions: in Brassica rapa, 144 h, seedlings with laid eggs dipped about 30 seconds, 25° C., 6 days after dip treatment, read-out: insecticidal efficacy (corrected mortality rate), activity level.
The subject of test [4] is Haemonchus contortus. The test can be described thus: Larval motility assay on Haemonchus contortus. Conditions: 96 h, L1 stage larvae, 4 days, relative to DMSO only, read-out: percent motility inhibition. The method, then: Larval Motility Assay on Haemonchus contortus
DMSO diluted solutions of various compounds of the present invention were added at the final concentration of 50 ppm to the wells of a 96-well plate containing a predetermined conditioned medium. Twenty L1 stage larvae of H. contortus were introduced into each well of the 96-well plate. The plate was allowed to stand for 4 days, and then larval motility was examined. The percent motility inhibition in the wells of each treatment was calculated relative to the wells of treatment with DMSO only.

Test [5] relates to Rhipicephalus sanguineus. The test is described as follows: Assay for transdermal parasiticidal activity against nymphs of Rhipicephalus sanguineus. The following applies: 48 h, read-out: mortality rate. The text has this:
Assay for Transdermal Parasiticidal Activity Against Nymphs of Rhipicephalus sanguineus
DMSO diluted solutions of various compounds of the present invention were individually diluted to the final concentration of 100 ppm with an acetone/triton mixture and applied to the inside of vented sample bottles. After overnight drying, ten nymphs of R. sanguineus were introduced into each bottle, and the mortality rate was examined two days later. Aberrant adults were regarded as the dead.

As to `CCS(=O)(=O)c1cc(-c2noc(C3CC3C)n2)cnc1-c1nc2cc(C(F)(F)C(F)(F)F)nnc2n1C` (stereo not drawn) [Compound 1-1], the mortality at 500 ppm in test [1] and in test [3] was 100% each time. Moreover, the inhibition at 50 ppm in test [2] and in test [4] was at least 50% throughout.

With `CCS(=O)(=O)c1cc(-c2noc(C3(C(F)(F)F)CC3)n2)cnc1-c1nc2cc(C(F)(F)C(F)(F)F)nnc2n1C` [Compound 1-2, 3-(5-(ethylsulfonyl)-6-(3-methyl-6-pentafluoroethyl-3[ ]-imidazo[4,5-c]pyridazin-2-yl)pyridin-3-yl)-5-(1-trifluoromethylcyclopropyl)-1,2,4-oxadiazole], the mortality at 500 ppm in test [1] and in test [3] was 100% throughout. In test [5], the mortality at 100 ppm is at least 50%. Also, the inhibition at 50 ppm in test [2] and in test [4] was at least 50% in each case.

On to `CCS(=O)(=O)c1cc(-c2noc(C3(c4ccccc4)CC3)n2)cnc1-c1nc2cc(C(F)(F)C(F)(F)F)nnc2n1C` [Compound 1-3], for which the mortality at 500 ppm in test [1] and in test [3] was 100% in each case. The mortality at 100 ppm in test [5] was at least 50%. For the same molecule, the inhibition at 50 ppm in test [2] and in test [4] was at least 50% in each case.

As to `CCS(=O)(=O)c1cc(-c2noc(C3(C)CC3)n2)cnc1-c1nc2cc(C(F)(F)C(F)(F)F)nnc2n1C` [Compound 1-4], the mortality at 500 ppm in test [1] and in test [3] was 100% each time. Besides, the inhibition at 50 ppm in test [2] and in test [4] was at least 50% throughout.
